# Assay results reported in the supplement of paper PMC10307832.
# Columns and labels:
# Test in all cases: relative viability (nuclei count vs DMSO), 5 days (fraction); higher = more cells survive
# [1] = compound: CCn1c(-c2nonc2N)nc2cnc(Oc3cccc(NC(=O)c4ccc(OCCN5CCOCC5)cc4)c3)cc21 + O=C(CCCCCCC(=O)Nc1ccccc1)NO [Vorinostat] (partner 1 µM)
# Method in brief: (§1)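 Five library-drug doses in √10 steps were combined with a fixed anchor-drug dose, or a single drug was given alone, by pin tool to lung cancer cell lines in 1536-well plates the day after seeding. Nuclei were stained and counted after 5 days. Relative viability is the nuclei count in treated wells over that in vehicle wells, taken as the median of duplicate plates.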
# Mirin + Pictilisib = compound: N=C1NC(=O)/C(=C/c2ccc(O)cc2)S1 [Mirin] + CS(=O)(=O)N1CCN(Cc2cc3nc(-c4cccc5[nH]ncc45)nc(N4CCOCC4)c3s2)CC1 [Pictilisib] (partner 1 µM)
# Method in brief: as §1
# [2] = compound: CCC1=CN=CN=C1N2CCN(CC2)CC3=NC4=C(N3)C=C(C=C4)C(F)(F)F + CCNC(=O)c1noc(-c2cc(C(C)C)c(O)cc2O)c1-c1ccc(CN2CCOCC2)cc1 [Luminespib] (partner 0.01 µM)
# Method in brief: as §1
# Mirin + Vorinostat = compound: N=C1NC(=O)/C(=C/c2ccc(O)cc2)S1 [Mirin] + O=C(CCCCCCC(=O)Nc1ccccc1)NO [Vorinostat] (partner 1 µM)
# Method in brief: as §1
Cell Line,relative viability ([1]; first compound 0.04 µM),relative viability ([1]; first compound 0.1265 µM),relative viability ([1]; first compound 0.4 µM),relative viability ([1]; first compound 1.265 µM),relative viability ([1]; first compound 4 µM),relative viability (Mirin + Pictilisib; first compound 0.25 µM),relative viability (Mirin + Pictilisib; first compound 0.7906 µM),relative viability (Mirin + Pictilisib; first compound 2.5 µM),relative viability (Mirin + Pictilisib; first compound 7.906 µM),relative viability (Mirin + Pictilisib; first compound 25 µM),relative viability ([2]; first compound 0.04 µM),relative viability ([2]; first compound 0.1265 µM),relative viability ([2]; first compound 0.4 µM),relative viability ([2]; first compound 1.265 µM),relative viability ([2]; first compound 4 µM),relative viability (Mirin + Vorinostat; first compound 0.25 µM),relative viability (Mirin + Vorinostat; first compound 0.7906 µM),relative viability (Mirin + Vorinostat; first compound 2.5 µM),relative viability (Mirin + Vorinostat; first compound 7.906 µM),relative viability (Mirin + Vorinostat; first compound 25 µM)
NCI-H2126,1.04,0.879,0.608,0.894,0.82,0.533,0.406,0.465,0.456,0.448,0.847,0.89,0.931,0.773,0.922,0.852,0.645,0.679,0.792,0.713
NCI-H2170,0.797,0.8,0.763,0.538,0.484,0.327,0.217,0.281,0.247,0.253,0.577,0.6,0.712,0.748,0.823,0.621,0.828,0.906,0.665,0.859
NCI-H2228,0.842,0.524,0.891,0.543,0.456,0.397,0.396,0.37,0.356,0.346,0.131,0.132,0.131,0.144,0.175,0.576,0.96,0.957,0.724,1
NCI-H2347,0.654,0.656,0.488,0.348,0.427,0.564,0.622,1.71,0.749,0.595,0.346,0.415,0.372,0.228,0.44,0.569,0.645,0.641,0.494,0.66
NCI-H2405,0.938,0.488,0.264,0.239,0.238,0.465,0.51,0.401,0.307,0.317,0.684,0.704,0.657,,0.794,0.943,,1.11,1.03,1.21
NCI-H3122,1.1,0.971,0.671,0.781,0.61,0.541,0.515,0.576,0.673,0.7,0.109,0.0823,0.0856,0.0704,0.0698,1.06,1.01,1.08,0.997,1.05
PC-3 [JPC-3],0.919,0.701,0.713,0.549,0.692,0.678,0.73,0.731,0.702,0.706,0.681,0.733,0.668,0.71,0.618,0.919,0.722,0.81,0.86,1.18
PC-14,0.912,0.612,0.64,0.554,0.62,0.658,0.568,0.68,0.797,0.933,0.175,0.207,0.215,0.134,0.133,0.798,0.638,0.729,0.719,0.746
RERF-LC-KJ,0.762,0.728,0.589,0.409,0.521,0.716,0.518,0.563,0.594,0.439,1.24,1.23,1.21,1.12,1.05,0.565,0.816,0.686,0.709,0.664
SK-LU-1,0.895,0.654,0.593,0.422,0.42,0.742,0.555,0.588,0.464,0.328,0.205,0.203,0.213,0.178,0.213,0.771,0.823,0.815,0.599,0.6
SK-MES-1,1.22,0.968,0.868,0.819,0.597,0.319,0.376,0.379,0.502,0.46,0.779,0.951,0.718,0.735,0.793,1.12,1.46,1.18,1.12,1.24
SW 1573,0.966,0.534,0.37,0.304,0.237,0.473,,0.466,0.355,0.289,0.158,0.211,0.174,0.273,0.399,0.867,0.772,0.765,0.308,0.56
